In publication PMC9944328 (Nature Communications, 2023):

Key:
SSTR2 = assay: Bias factor (β value), Gi cAMP inhibition versus β-arrestin recruitment; assay type: cell-based, human
Protocol: (§1) The levels of the intracellular 3′, 5′-cyclic AMP (cAMP) were measured by the GloSensor cAMP assay (Promega) as described in the previous studies[28],[41] which has been widely used. The human full-length SSTRs and mutants were cloned into the pcDNA3.1+ vector with a HA signal sequence followed by a Flag tag at the N-terminus. […] Cells were then co-transfected with SSTR wild-type or mutants and GloSensor plasmids. After 24 h of transfection, the cells were dissociated with TrypLE™ Express Enzyme (1X) (Thermo Fisher Scientific) and collected by centrifugation at 500 × g for 5 min. Then the collected cells were suspended in Hank’s balanced salt solution [HBSS (Thermo Fisher Scientific)] supplemented with […] potassium salt solution (YEASEN), and then the suspension cells were seeded into 96-well plates with 90 μl/well. After incubating at room temperature for 40 min, 5 μM forskolin and ligands diluted in HBSS were added to each well and the plates were incubated at room temperature for 15 min. […] signals were measured using the Synergy H1 microplate reader (BioTek) and the data presented are means of at least three independent experiments.
The NanoBiT β-arrestin 1 recruitment assays were carried out according to the method described previously. […] Human full-length SSTR wild-type and mutant vectors were C-terminally fused with a 15-amino acid flexible linker and the small fragment (SmBiT). HEK293 cells were seeded into six-well microplates at a density of 1.0 × 10^6 cells/well and cultured for 24 h at 37 °C with 5% CO2. After that, cells were co-transfected with pcDNA3.1+ vectors encoding SSTR wild-type or mutants and human β-arrestin 1. After transfecting for 24 h, the transfected cells were suspended and seeded into white 96-well plates, and then cultured at 37 °C overnight. After that the medium in each well was exchanged for 90 μl of 0.01% bovine serum albumin containing 20 μl of 50 μM coelenterazine h (Carbosynth) diluted in the HBSS assay buffer and incubated for 40 min at room temperature. Then, ligands diluted in the assay buffer was added to each well and the luminescence intensity was measured using the Synergy H1 microplate reader and detected at room temperature in a time period. All data presented are means of at least three independent experiments.
All data in this study were analyzed using GraphPad Prism 7 and were expressed as the error bars and the standard error of means ± SEM from at least n = 3 biologically independent experiments performed in triplicate. All curve data were normalized to the maximal wild-type and processed using a sigmoidal dose response curve in GraphPad Prism 7. Statistical differences between conditions were determined by one-way of variance ANOVA with Dunnett’s test or T-test.

GH3 cells = assay: Cell apoptosis assay, Annexin V-FITC/PI flow cytometry, GH3 cells overexpressing SSTR2, 48 h; assay type: cell-based, rat
Protocol: The rat pituitary GH3 cells (ATCC, CCL-82.1) were seeded in 12-well plates at 1.5 × 10^5/well. […] Then, the cells were collected for the apoptosis assay according to the instruction of the Annexin V-FITC/PI apoptosis detection kit (BD Biosciences). Briefly, the cells were washed with cold PBS and resuspended in 1 × binding buffer. Then, 5 μl of Annexin V-FITC was added and incubated for 10 min and stained with 5 μl of PI for 5 min in the dark at room temperature. All samples were acquired by a Novocyte flow cytometer (ACEA Biosciences, China), and data were analyzed with NovoExpress^TM software.

SSTR3 = molecular target: T1, SSTR3 (Homo sapiens, UniProt P32745); assay: SSTRs Gi-mediated cAMP inhibition, GloSensor, HEK293 (SSTR3 wild-type); assay type: cell-based; design: Bottom / Top / Span / Top (best-fit): unit not given here; conditions: SSTR3-WT; for LogEC50 (best-fit) / Top (best-fit): cAMP inhibition
T1 construct: The human full-length SSTRs and mutants were cloned into the pcDNA3.1+ vector; expressed in transfected cells; host or cells: HEK293 (ATCC, CRL-1573)
Protocol: as §1

SSTR3 mutants [1] = molecular target: SSTR3 mutants (Homo sapiens, UniProt P32745); assay: SSTRs Gi-mediated cAMP inhibition, GloSensor, HEK293 (SSTR3 mutants); assay type: cell-based; design: Bottom / Top / Span / Top (best-fit): unit not given here; conditions: for LogEC50 (best-fit) / Top (best-fit): cAMP inhibition, SSTR3 N101V
Protocol: as §1

SSTR3 mutants [2] = molecular target: T2, SSTR3 mutants (Homo sapiens, UniProt P32745, H192T); assay: as above; assay type: cell-based; design: Bottom / Top / Span / Top (best-fit): unit not given here; conditions: for LogEC50 (best-fit) / Top (best-fit): cAMP inhibition, SSTR3 H192T
T2 construct: The human full-length SSTRs and mutants were cloned into the pcDNA3.1+ vector; expressed in transfected cells; host or cells: HEK293 (ATCC, CRL-1573)
Protocol: as §1

SSTR2 mutants [3] = molecular target: SSTR2 mutants (Homo sapiens, UniProt P30874, Y312A)
SSTR2 mutants [4] = molecular target: SSTR2 mutants (Homo sapiens, UniProt P30874, R140A)
SSTR2 mutants [5] = assay: SSTR2 internalization by ELISA, HEK293, 30 min 37 °C (mutants); assay type: cell-based, human; conditions: I284ECL3A, K291A, N276A, F294A, Bystander BRET or confocal
Protocol: HEK293 cells were seeded into 96-well microplates at a density of 4 × 10^4 cells/well and cultured for 24 h at 37 °C with 5% CO2 and were transfected using the same procedure as the cAMP accumulation assay. The plates were washed with washing buffer (PBS) the day after transfection, and were fixed with 4% formalin at room temperature for 30 min. Cells were washed with washing buffer and blocked with PBS supplemented with 5% BSA for 1 h at room temperature. After that, cells were incubated with anti-Flag antibody (1:1000 diluted with PBS containing 5% BSA, Proteintech: 66008-4-Ig) for 1 h at room temperature. After 1 h incubation, cells were washed with washing buffer and incubating with HRP-conjugated secondary antibody for 2 h at room temperature. After incubating and washing, 50 μl of chromogenic solution was added to each well, and reacted at room temperature for 10 min, and then 0.5 M HCl were added to stop the reaction.
All data presented are means at least three independent experiments.

T2 sequence (P32745 whole entry H192T): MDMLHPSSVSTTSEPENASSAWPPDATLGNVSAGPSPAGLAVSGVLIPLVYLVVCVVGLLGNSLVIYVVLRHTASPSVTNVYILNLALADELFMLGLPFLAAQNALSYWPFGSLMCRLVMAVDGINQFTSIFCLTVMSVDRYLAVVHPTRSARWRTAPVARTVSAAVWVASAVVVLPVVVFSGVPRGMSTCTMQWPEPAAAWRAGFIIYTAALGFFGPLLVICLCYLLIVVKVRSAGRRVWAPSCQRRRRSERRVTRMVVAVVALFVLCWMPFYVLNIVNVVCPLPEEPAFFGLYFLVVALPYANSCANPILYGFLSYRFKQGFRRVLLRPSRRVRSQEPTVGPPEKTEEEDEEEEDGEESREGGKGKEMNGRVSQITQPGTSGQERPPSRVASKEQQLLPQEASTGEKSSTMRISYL
T1 sequence (P32745 whole entry): as the sequence (P32745 whole entry H192T) above, with T192H counted along it
Sequence of SSTR3 mutants (Homo sapiens, UniProt P32745) (P32745 whole entry N104V): as the sequence (P32745 whole entry H192T) above, with N104V, T192H counted along it
Sequence of SSTR2 mutants (Homo sapiens, UniProt P30874, Y312A) (P30874 whole entry Y312A): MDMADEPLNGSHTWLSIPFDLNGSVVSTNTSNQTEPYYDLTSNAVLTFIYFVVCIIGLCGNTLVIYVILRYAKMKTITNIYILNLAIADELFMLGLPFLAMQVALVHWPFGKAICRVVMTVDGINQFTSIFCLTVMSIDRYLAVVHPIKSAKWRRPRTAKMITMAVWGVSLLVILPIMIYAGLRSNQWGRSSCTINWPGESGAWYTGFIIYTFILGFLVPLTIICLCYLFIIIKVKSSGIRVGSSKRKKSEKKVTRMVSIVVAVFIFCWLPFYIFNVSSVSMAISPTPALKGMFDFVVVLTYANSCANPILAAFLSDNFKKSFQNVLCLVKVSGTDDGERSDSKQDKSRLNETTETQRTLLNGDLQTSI
Sequence of SSTR2 mutants (Homo sapiens, UniProt P30874, R140A) (P30874 whole entry R140A): as the sequence (P30874 whole entry Y312A) above, with R140A, A312Y counted along it

**Q.** For `C[C@@H](O)[C@@H]1NC(=O)[C@H](CCCCN)NC(=O)[C@@H](Cc2c[nH]c3ccccc23)NC(=O)[C@H](Cc2ccccc2)NC(=O)[C@@H](NC(=O)[C@H](N)Cc2ccccc2)CSSC[C@@H](C(=O)N[C@H](CO)[C@@H](C)O)NC1=O` [octreotide], which “Effect of microswitch mutations” value (SSTR2; CWxP, PIF, DRY and NPxxY motif mutants versus wild-type SSTR2) is on record?
**A.** decreased the potency of β-arrestin recruitment more markedly than the activation ability of Gi signaling

**Q.** And the “Effect of mutants on both signals” value (SSTR2; D122(3.32) and Q126(3.36) mutants)?
**A.** markedly affected both β-arrestin and Gi signal

**Q.** What about the Proapoptotic activity (GH3 cells) of the same compound?
**A.** able to activate proapoptotic pathways

**Q.** What about the Emax (SSTR3; HEK293, Suppl. Tables 4/5, n=5) of the same compound?
**A.** 99.8 ± 8.21%

**Q.** What about the “LogEC50 (best-fit)” value (SSTR3; run 1) of the same compound?
**A.** -7.262

**Q.** What about the “Top (best-fit)” value (SSTR3; run 1) of the same compound?
**A.** 103

**Q.** What about the “LogEC50 (best-fit)” value (SSTR3; run 2) of the same compound?
**A.** -7.521

**Q.** What about the “Top (best-fit)” value (SSTR3; run 2) of the same compound?
**A.** 99.85

**Q.** And the “LogEC50 (best-fit)” value (SSTR3; run 3)?
**A.** -7.466

**Q.** What about the “Top (best-fit)” value (SSTR3; run 3) of the same compound?
**A.** 98.24

**Q.** And the “LogEC50 (best-fit)” value (SSTR3; run 4)?
**A.** -8.231

**Q.** And the “Top (best-fit)” value (SSTR3; run 4)?
**A.** 100.3

**Q.** And the Emax (SSTR3 mutants [1]; HEK293)?
**A.** 120 ± 3.57%

**Q.** What about the “LogEC50 (best-fit)” value (SSTR3 mutants [1]; run 1) of the same compound?
**A.** -8.602

**Q.** What about the “Top (best-fit)” value (SSTR3 mutants [1]; run 1) of the same compound?
**A.** 99.48

**Q.** What about the “LogEC50 (best-fit)” value (SSTR3 mutants [1]; run 2) of the same compound?
**A.** -8.875

**Q.** What about the “Top (best-fit)” value (SSTR3 mutants [1]; run 2) of the same compound?
**A.** 120.3

**Q.** What about the “LogEC50 (best-fit)” value (SSTR3 mutants [1]; run 3) of the same compound?
**A.** -8.73

**Q.** And the “Top (best-fit)” value (SSTR3 mutants [1]; run 3)?
**A.** 98.22

**Q.** What about the “LogEC50 (best-fit)” value (SSTR3 mutants [1]; run 4) of the same compound?
**A.** -9.386

**Q.** What about the “Top (best-fit)” value (SSTR3 mutants [1]; run 4) of the same compound?
**A.** 101.4

**Q.** And the “EC50 of mutant versus wild-type” value (SSTR3 mutants [2]; H192(45.51)T mutant of SSTR3)?
**A.** retained a similar EC50 as wild-type receptor

**Q.** And the Emax (SSTR3 mutants [2]; HEK293, Suppl. Tables 4/5, SSTR3 H192(45.51)T, n=3, read-out: Emax)?
**A.** 92.4 ± 10.2%

**Q.** And the “LogEC50 (best-fit)” value (SSTR3 mutants [2]; run 1)?
**A.** -7.081

**Q.** And the “Top (best-fit)” value (SSTR3 mutants [2]; run 1)?
**A.** 99.15

**Q.** What about the “LogEC50 (best-fit)” value (SSTR3 mutants [2]; run 2) of the same compound?
**A.** -7.677

**Q.** What about the “Top (best-fit)” value (SSTR3 mutants [2]; run 2) of the same compound?
**A.** 107.4

**Q.** What about the “LogEC50 (best-fit)” value (SSTR3 mutants [2]; run 3) of the same compound?
**A.** -7.174

**Q.** And the “Top (best-fit)” value (SSTR3 mutants [2]; run 3)?
**A.** 100.5

**Q.** What about the “LogEC50 (best-fit)” value (SSTR3 mutants [2]; run 4) of the same compound?
**A.** -7.758

**Q.** And the “Top (best-fit)” value (SSTR3 mutants [2]; run 4)?
**A.** 101.2

**Q.** What about the Emax (SSTR2 mutants [3]) of the same compound?
**A.** 45.6 ± 1.21%

**Q.** What about the Emax (SSTR2 mutants [4]) of the same compound?
**A.** 48.4 ± 0.93%

**Q.** And the Internalization of mutants (SSTR2 mutants [5])?
**A.** diminished internalization
